Six substances from patent US20120010272A1, “RNA Interference Mediated Inhibition of Apoptosis Signal-Regulating Kinase 1 (ASK1) Gene Expression Using Short Interfering Nucleic Acid (siNA)” (Merck Sharp & Dohme Corp., priority 2009, published 2012) can be followed below.

Holding throughout (assay type): cell-based
Series [1] has as its system ASK1 mRNA. Kind of series: ASK1 mRNA knock-down by siNA in human A549 cells (RNAiMax transfection, Taqman RT-PCR). As to conditions: for % KD Human: 10 nM siNA, 24 hrs post-transfection, vs non-targeting control, GAPDH-normalized, mean ± S.D.; for % KD Human / % KD ASK-1 10 nM: two experiments; for % KD ASK-1 mRNA at 10 nM: mean ± S.D. (Table 5); for % KD ASK-1 10 nM: mean ± standard deviation (Table 6). As for the experimental part:
A549 (human; ATCC cat #CCL-185): Cells were cultured at 37° C. in the presence of 5% CO2 and grown in Ham's F12K medium with 2 mM L-glutamine adjusted to contain 1.5 g/L sodium bicarbonate and supplemented with fetal bovine serum at a final concentration of 10%, 100 μg/mL of streptomycin, and 100 U/mL penicillin.
(§1) Cells were plated in all wells of a tissue-culture treated, 96-well plate at a final count of 5000 cells/well (A549 cell line) and 3,500 cells/well (Hepal-6 cell line) in 100 μL of the appropriate culture media. The cells were cultured for 24 hours after plating at 37° C. in the presence of 5% CO2.
(§2) After 24 hours, complexes containing siNA and RNAiMax were created as follows: A solution of RNAiMax diluted 33-fold in OPTI-MEM was prepared. In parallel, solutions of the siNAs for testing were prepared to a final concentration of 120 nM in OPTI-MEM. After incubation of RNAiMax/OPTI-MEM solution at room temperature for 5 min, an equal volume of the siRNA solution and the RNAiMax solution were added together for each of the siNAs.
(§3) This solution was incubated at room temperature for 20 minutes. After incubation, 20 uL of the solution was added to each of the relevant wells. The final concentration of siNA in each well was 10 nM and the final volume of RNAiMax in each well was 0.3 ul.
(§4) The time of incubation with the RNAiMax-siNA complexes was 24 hours and there was no change in media between transfection and harvesting, unless otherwise indicated.
(§5) RNA was extracted from a 96-well plate using the TaqMan® Gene Expression Cells-to-CT™ Kit (Cat #4399002) with a modified protocol. Briefly, a 60 uL (1 plate) or 110 uL (2 plates) of the Lysis Solution with DNase I was dispensed into each well of the Lysis Buffer Plate (twin.tec full skirt plate). The lysis buffer and stop plates were stored at 4° C. until the cells were washed.
(§6) The plate was spun at 1100 rpm for 5 minutes. The culture medium was aspirated and discarded from the wells of the culture plate. The lysis was performed automatically using a BioMek FX instrument and method. After the Biomek method was completed, the lysis plate was incubated for 2 min. at room temperature. The lysis plate can be stored for 2 hours at 4° C., or at −20° C. or −80° C. for two months.
(§7) Each well of the reverse transcription plate required 10 uL of 2× reverse transcriptase Buffer, 1 uL of 20× reverse transcription enzyme and 2 uL of nuclease-free water. The reverse transcription master mix was prepared by mixing 2× reverse transcription buffer, 20× reverse transcription enzyme mix, and nuclease-free water. 13 uL of the reverse transcription master mix was dispensed into each well of the reverse transcription plate (semi-skirted). A separate reverse transcription plate was prepared for each cell plate. The plate was loaded onto a Biomek NX or Biomek FX Dual-96 and the Biomek method was run. The program is programmed to automatically added 7 uL of lysate from the cell lysis procedure described above into each well of the reverse transcription plate. The plate is sealed and spun on a centrifuge (1000 rpm for 30 seconds) to settle the contents to the bottom of the reverse transcription plate. The plate is placed in a thermocycler at 37° C. for 60 min, 95° C. for 5 min, and 4° C. until the plate is removed from the thermocycler. Upon removal, if not used immediately, the plate was frozen at −20° C.
(§8) A series of probes and primers were used to detect the various mRNA transcripts of the genes of ASK1, ASK2, and GAPDH in human cell lines and ASK1 and GAPDH in mouse cell lines. All Taqman probes and primers for the experiments were supplied as pre-validated sets by ABI (see Table 2).
(§9) The assays were performed on an ABI 7900 instrument, according to the manufacturer's instructions. A TaqMan Gene Expression Master Mix (provided in the Cells-to-CT™, Applied Biosystems, Cat #4399002) was used. […]

The subject of series [2] is ASK1 mRNA. Kind of series: ASK1 mRNA knock-down by siNA in mouse Hepa1-6 cells (RNAiMax transfection, Taqman RT-PCR). The settings on record: 10 nM siNA, 24 hrs post-transfection, vs non-targeting control, GAPDH-normalized, mean ± S.D., two experiments. As for the experimental part:
Hepal-6 (murine; ATCC cat #CRL-1830): Cells were cultured at 37° C. in the presence of 5% CO2 and grown in Dulbecco's modified Eagle's medium (DMEM) with 4 mM L-glutamine adjusted to contain 1.5 g/L sodium bicarbonate and 4.5 g/L glucose and supplemented with 10% of fetal bovine serum, 100 μg/mL of streptomycin, and 100 U/mL penicillin.
as §1, §2, §3, §4, §5, §6, §7, §8, §9

Series [3] concerns mRNA transcript of human ASK2. As to the kind of experiment: ASK2 specificity screen: effect of ASK1 siNAs on human ASK2 mRNA in A549 cells. The settings on record: 1 nM siNA, three independent experiments, mean ± standard deviation. The protocol: A549 cells were plated in all wells of a tissue-culture treated, 96-well plate at a final count of 5,000 cells/well in 100 μL of appropriate culture media. Cells were cultured for 24 hours after plating at 37° C. in the presence of 5% CO2.
as §2, with “follows.” for “follows:”, “siRNAs” for “siNAs”, “12” for “120”, “siNA” for “siRNA”, “siNAs. […] This solution was incubated at room temperature for 20 minutes. After incubation, 20 uL of the solution was added to each of the relevant wells. The final concentration of siNA in each well was 1 nM and the final volume of RNAiMax in each well was 0.3 uL. The time of incubation with the RNAiMax-siNA complexes was 24 hours.” for “siNAs.”
as §5, §6, §7, §8
The assays were performed on an ABI 7900 instrument, according to the manufacturer's instructions. A TaqMan Gene Expression Master Mix (provided in the Cells-to-CT™, Applied Biosystems, Cat #4399002) was used. The PCR reactions were carried out at 50° C. for 2 min, 95° C. for 10 min followed by 40 cycles at 95° C. for 15 secs and 60° C. for 1 min.
The expression level of the gene of interest and % knock-down was calculated using Comparative Ct method:
ΔΔCt=ΔCt(Target siRNA)−ΔCt(NTC)
Relative expression level=2^−ΔΔCt
The non-targeting control siRNA was, unless otherwise indicated, chosen as the value against which to calculate the % knock-down, because it is the most relevant control.
The specificity of these siNAs was also assessed. […]

In series [4] the test system is ASK1 mRNA. Kind of series: ASK1 mRNA knock-down by siNA in human A549 cells (RNAiMax transfection, Taqman RT-PCR). The settings on record: 12 concentrations 0.083 fM to 30 nM, mean ± S.D.

[invAb] = inverted abasic unit; m = 2'-O-methyl; r = 2'-OH (RNA); f = 2'-fluoro

Take “25376-DC: siNA duplex, sense B GcAccAGAAAuAAuAGAuA TTB, antisense UAUcuAuuAuuucuGGuGcUU (SEQ ID NO: 33/34), human ASK1 target site 2900 (sense GCACCAGAAAUAAUAGAUATT; antisense UAUCUAUUAUUUCUGGUGCUU; chemistry not fully specified)”: in series [1], the “% KD Human” value is on record as 89 ± 1%, the “% KD ASK-1 mRNA at 10 nM” value was determined as 89 ± 1% and the “% KD ASK-1 10 nM” value is 89 ± 1%. Also, the “% KD Mouse” value in series [2] amounted to 14 ± 18%. The “% KD ASK-2 1 nM” value in series [3] is 5 ± 12%. Besides, in series [4], the IC50 was found to be 14 ± 4 pM.

For the substance “25379-DC: siNA duplex, sense B cGAuGGAAAuucuAAAAAu TTB, antisense AUUuuuAGAAuuuccAucGUU (SEQ ID NO: 39/40), human ASK1 target site 4507 (sense CGAUGGAAAUUCUAAAAAUTT; antisense AUUUUUAGAAUUUCCAUCGUU; chemistry not fully specified)”, in series [1], the “% KD Human” value came to 92 ± 0%, the “% KD ASK-1 mRNA at 10 nM” value is reported as 92 ± 0% and the “% KD ASK-1 10 nM” value was 92 ± 0%. In addition, the “% KD Mouse” value in series [2] worked out at 4 ± 3%. For the same substance, the “% KD ASK-2 1 nM” value in series [3] is −6 ± 4%. This substance had an IC50 in series [4] of 9 ± 2 pM.

As to “25385-DC: siNA duplex, sense B GGAAGGcuAucAuuGAcuu TTB, antisense AAGucAAuGAuAGccuuccUU (SEQ ID NO: 51/52), human ASK1 target site 4449 (sense GGAAGGCUAUCAUUGACUUTT; antisense AAGUCAAUGAUAGCCUUCCUU; chemistry not fully specified)”, in series [1], the “% KD Human” value came out at 90 ± 0%, the “% KD ASK-1 mRNA at 10 nM” value is 90 ± 0% and the “% KD ASK-1 10 nM” value is given as 90 ± 0%. The “% KD Mouse” value in series [2] is recorded as 75 ± 15%. Also, the “% KD ASK-2 1 nM” value in series [3] turned out to be 2 ± 11%. In series [4], this substance had an IC50 of 10 ± 3 pM.

Turning to “25387-DC: siNA duplex, sense B cAccAGAAAuAAuAGAuAA TTB, antisense UUAucuAuuAuuucuGGuGUU (SEQ ID NO: 55/56), human ASK1 target site 2901 (sense CACCAGAAAUAAUAGAUAATT; antisense UUAUCUAUUAUUUCUGGUGUU; chemistry not fully specified)”, in series [1], the “% KD Human” value turned out to be 87 ± 2%, the “% KD ASK-1 mRNA at 10 nM” value came to 87 ± 2% and the “% KD ASK-1 10 nM” value turned out to be 87 ± 2%. In series [2], the “% KD Mouse” value is recorded as −17 ± 11%. Besides, the “% KD ASK-2 1 nM” value in series [3] worked out at 4 ± 11%. The substance also registered an IC50 in series [4] of 20 ± 3 pM.

For the substance “25389-DC: siNA duplex, sense B GAGAcAAuuuuAAuAuAuA TTB, antisense UAUAuAuuAAAAuuGucucUU (SEQ ID NO: 59/60), human ASK1 target site 1907 (sense GAGACAAUUUUAAUAUAUATT; antisense UAUAUAUUAAAAUUGUCUCUU; chemistry not fully specified)”, in series [1], the “% KD Human” value was determined as 93 ± 4%, the “% KD ASK-1 mRNA at 10 nM” value is reported as 93 ± 4% and the “% KD ASK-1 10 nM” value worked out at 93 ± 4%. For the same substance, the “% KD Mouse” value in series [2] is −4 ± 4%. For the same substance, the “% KD ASK-2 1 nM” value in series [3] was found to be 5 ± 4%. The IC50 in series [4] was 3 ± 0.5 pM.

For “25399-DC: siNA duplex, sense B ccAAcAcuAcAGucAGGAA TTB, antisense UUCcuGAcuGuAGuGuuGGUU (SEQ ID NO: 79/80), human ASK1 target site 1640 (sense CCAACACUACAGUCAGGAATT; antisense UUCCUGACUGUAGUGUUGGUU; sense: DNA at AGT, 2'-fluoro at CU, [invAb] at 5' end, 3' end, backbone not given here; antisense: sugars from the 5' end rrrffmmffmfmmfmffmmmm, backbone not given here)”, in series [1], the “% KD Human” value came out at 81 ± 2%, the “% KD ASK-1 mRNA at 10 nM” value turned out to be 81 ± 2% and the “% KD ASK-1 10 nM” value is given as 81 ± 2%. In addition, the “% KD Mouse” value in series [2] came out at 62 ± 0%. For the same substance, the “% KD ASK-2 1 nM” value in series [3] amounted to 9 ± 8%. In series [4], this substance yielded a half-maximal inhibitory concentration (IC50) of 150 ± 43 pM.
